From patent publication US5284850A, “Terpene amino alcohols and medicinal uses thereof” (Kuraray Co., Ltd., priority 1985, dated 1994) come the findings set out here.

The subject of this assay is sensitized bronchial muscle. The experiment in a line: Antiallergic action: inhibition of egg albumin-induced contraction of sensitized guinea pig bronchial muscle. The assay is classed as tissue-based, guinea pigs of Hartley strain. To be noted: Cavia porcellus; for inhibition at 100 µM: 10^-4 M; for inhibition at 10 µM: 10^-5 M; for inhibition at 1 µM: 10^-6 M; for inhibition at 0.1 µM: 10^-7 M; for inhibition at 0.01 µM: 10^-8 M. How it is done:
Male guinea pigs of Hartley strain (body weight: about 250 g) were intraperitoneally or intramuscularly dosed with egg albumin (dose 100 mg/kg) and the same procedure was repeated after 3 days. After 3 to 4 weeks, the guinea pi-as were bled to death and the sensitized bronchial muscle was excised and cut into 1.5 mm thick rings. Three rings were joined to prepare a specimen. The specimen was suspended in a tissue bath and a load of 1 g was applied. […] After stabilization of the specimen (after about 1 hour), histamine hydrochloride was added to the bath at a final concentration of 10^-5 M. The contraction curve was recorded. After the contraction had been stabilized, the specimen was washed with 3 portions of Ringer's solution at 10-minute intervals to stabilize the contraction (about 1 hour was required). Then, the test compound was added to the tissue bath and, after an interval of 10 minutes, 5 mg/ml of egg albumin was added. The contraction amplitude of the specimen was measured and the percent inhibition was calculated according to the following formula. [formula] A: Contraction amplitude of control group when egg albumin is added A': Contraction amplitude of dosage group when egg albumin is added
H: Contraction amplitude of control group when histamine hydrochloride is added
H': Contraction amplitude of dosage group when histamine hydrochloride is added

In general, inhibition refers to the percentage by which the read-out fell short of the control. `CCCCN(CCCC)CC(O)C(C)(O)CCC=C(C)C` (centres unmarked) [(1)]: the inhibition at 100 µM came to 43.6%.

On to `CC(C)=CCCC(C)(O)C(O)CN(C)c1ccccc1` (centres unmarked) [(2)], for which the inhibition at 100 µM was determined as 58.7%, the inhibition at 10 µM stood at 30.1% and the inhibition at 1 µM was found to be 19.9%.

In the case of `CC(C)=CCCC(C)(O)C(O)CN1CCCC1` (centres unmarked) [(3)], the inhibition at 10 µM was determined as 36.3%, the inhibition at 1 µM was found to be 60%, the inhibition at 0.1 µM turned out to be 34.2% and the inhibition at 0.01 µM was 30.8%.

On to `CNCC(O)C(C)(O)CCCC(C)CCCC(C)CCCC(C)C` (centres unmarked) [(31)], for which the inhibition at 10 µM came to 10.9%.

`CCN(CC)CC(O)C(C)(O)CCCC(C)CCCC(C)CCCC(C)C` (centres unmarked) [(33)]: the inhibition at 10 µM is 47.9% and the inhibition at 1 µM turned out to be 32.6%.

Take `CC(C)=CCCC(C)(O)C(O)CN1CCCCC1` (centres unmarked) [Compound (4)]: the inhibition at 10 µM stood at 42% and the inhibition at 1 µM was found to be 2.6%.

For the compound `CC(C)=CCCC(C)(O)C(O)CN1CCOCC1` (centres unmarked) [Compound (5)], the inhibition at 10 µM was determined as 28.9%, the inhibition at 1 µM stood at 71.5% and the inhibition at 0.1 µM was found to be 23%.

`CC(C)=CCCC(C)(O)C(O)CN(C)CCO` (centres unmarked) [Compound (6)]: the inhibition at 10 µM stood at 48.2% and the inhibition at 1 µM stood at 28.6%.

Regarding `CC(C)CCCC(C)(O)C(O)CN` (centres unmarked) [Compound (7)], the inhibition at 10 µM came out at 54.3%, the inhibition at 1 µM stood at 48.1% and the inhibition at 0.1 µM came to 58.7%.

With `CNCC(O)C(C)(O)CCCC(C)C` (centres unmarked) [Compound (8)], the inhibition at 100 µM amounted to 52.6% and the inhibition at 10 µM amounted to 37.8%.

Consider `CCCCN(CCCC)CC(O)C(C)(O)CCCC(C)C` (centres unmarked) [Compound (9)], for which the inhibition at 10 µM was determined as 27.9%, the inhibition at 1 µM came to 67.2%, the inhibition at 0.1 µM amounted to 56% and the inhibition at 0.01 µM was 16%.

For `CC(C)CCCC(C)(O)C(O)CNCCO` (centres unmarked) [Compound (10)], the inhibition at 10 µM is 81.2% and the inhibition at 1 µM stood at 23.8%.

Turning to `CC(C)CCCC(C)CCCC(C)(O)C(O)CN` (centres unmarked) [Compound (11), 1-amino-3,7,11-trimethyl-2,3-dodecanediol], the inhibition at 10 µM was 40.7% and the inhibition at 1 µM turned out to be 32.5%.

Consider `CNCC(O)C(C)(O)CCCC(C)CCCC(C)C` (centres unmarked) [Compound (12), 1-methylamino-3,7,11-trimethyl-2,3-dodecanediol], for which the inhibition at 100 µM came to 48.3% and the inhibition at 10 µM was determined as 35.4%.

On to `CCCCN(CCCC)CC(O)C(C)(O)CCCC(C)CCCC(C)C` (centres unmarked) [Compound (13), 1-dibutylamino-3,7,11-trimethyl-2,3-dodecanediol], for which the inhibition at 100 µM came out at 40.2%.

As to `CC(C)CCCC(C)CCCC(C)(O)C(O)CNCCO` (centres unmarked) [Compound (14)], the inhibition at 10 µM was found to be 48.7% and the inhibition at 1 µM was 51.4%.

`CC(C)CCCC(C)CCCC(C)(O)C(O)CN(C)C` (centres unmarked) [Compound (16), 1-(dimethylamino)-3,7,11-trimethyl-2,3-dodecanediol]: the inhibition at 10 µM turned out to be 48%, the inhibition at 1 µM was found to be 35% and the inhibition at 0.1 µM was 15%.

As for `CC(C)CCCC(C)CCCC(C)(O)C(O)CN1CCOCC1` (stereo not drawn) [Compound (17), 3,7,11-trimethyl-l-morpholino-2,3-dodecanediol], the inhibition at 10 µM is 45%, the inhibition at 1 µM is 68% and the inhibition at 0.1 µM amounted to 29%.

On to `COc1ccc(CN2CCN(CC(O)C(C)(O)CCCC(C)CCCC(C)C)CC2)c(OC)c1OC` (stereo not drawn) [Compound (18), 3,7,11-trimethyl-l-[4-[(2,3,4-trimethoxyphenyl)methyl]piperazin-1-yl]-2,3-dodecanediol], for which the inhibition at 10 µM was 62%, the inhibition at 1 µM stood at 79% and the inhibition at 0.1 µM amounted to 45%.

As to `CC(C)CCCC(C)CCCC(C)(O)C(O)CNc1ccc(O)cc1` (centres unmarked) [Compound (19)], the inhibition at 10 µM came to 43%, the inhibition at 1 µM turned out to be 54% and the inhibition at 0.1 µM was 33%.

As to `CC(C)CCCC(C)CCCC(C)(O)C(O)CNc1ccncc1` (centres unmarked) [Compound (20)], the inhibition at 1 µM amounted to 71%, the inhibition at 0.1 µM is 40% and the inhibition at 0.01 µM is 15%.

As for `CC(C)CCCC(C)CCCC(C)(O)C(O)Cn1ccnc1` (centres unmarked) [Compound (21), 1-(1H-imidazol-1-yl)-3,7,11-trimethyl-2,3-dodecanediol], the inhibition at 0.1 µM is 66.9%.

Regarding `CC(C)CCCC(C)CCCC(C)(O)C(O)CNCCCN1CCOCC1` (centres unmarked) [Compound (22)], the inhibition at 0.1 µM turned out to be 46.9%.

As for `CC(C)CCCC(C)CCCC(C)(O)C(O)CNc1cccc2ncccc12` (centres unmarked) [Compound (23)], the inhibition at 1 µM was 76%, the inhibition at 0.1 µM amounted to 55% and the inhibition at 0.01 µM came out at 27%.

In the case of `CC(C)CCCC(C)CCCC(C)(O)C(O)CN1CCN(C(c2ccccc2)c2ccccc2)CC1` (centres unmarked) [Compound (24)], the inhibition at 1 µM was 75%, the inhibition at 0.1 µM was 60% and the inhibition at 0.01 µM stood at 25%.

With `CC(C)CCCC(C)CCCC(C)(O)C(O)Cn1c(=O)[nH]c2ccccc21` (centres unmarked) [Compound (25)], the inhibition at 1 µM was 69%, the inhibition at 0.1 µM stood at 47% and the inhibition at 0.01 µM came out at 19%.

As for `CC(C)CCCC(C)CCCC(C)(O)C(O)CN1CCSCC1` (centres unmarked) [Compound (26)], the inhibition at 10 µM amounted to 50%, the inhibition at 1 µM was determined as 39% and the inhibition at 0.1 µM stood at 18%.

`CNCCC(C)(O)CCCC(C)(O)CCCC(C)C` (centres unmarked) [Compound (27), 1-(methylamino)-3,7,11-trimethyl-3,7-dodecanediol]: the inhibition at 0.1 µM was determined as 15.6%.

For `CNCC(O)C(C)CCCC(C)CCCC(C)C` (centres unmarked) [Compound (28), 1-methylamino-3,7,11-trimethyl-2-dodecanol], the inhibition at 10 µM came to 66%, the inhibition at 1 µM was determined as 49% and the inhibition at 0.1 µM was determined as 35%.

`CC(C)CCCC(C)(O)CCCC(C)(O)CCN(C)Cc1ccccc1` (centres unmarked) [Compound (29), 1-(methylbenzylamino)-3,7,11-trimethyl-3,7-dodecanediol]: the inhibition at 0.1 µM worked out at 42.3%.

Consider `CC(C)CCCC(C)CCCC(C)CCCC(C)(O)C(O)CN` (centres unmarked) [Compound (30)], for which the inhibition at 10 µM was 16.7% and the inhibition at 1 µM was 9%.

For the compound `CCCCN(CCCC)CC(O)C(C)(O)CCCC(C)CCCC(C)CCCC(C)C` (centres unmarked) [Compound (34)], the inhibition at 10 µM is 65.2%, the inhibition at 1 µM stood at 33% and the inhibition at 0.1 µM stood at 3%.

Turning to `CN(CCC(C)(O)CCCC(C)(O)CCCC(C)(C)O)Cc1ccccc1` (centres unmarked) [Compound (37), 1-(methylbenzylamino)-3,7,11-trimethyl-3,7,11-dodecanetriol], the inhibition at 0.1 µM worked out at 16%.

Consider `CC(C)CCCC(C)CCCC(C)(O)C(O)CN1CCCC1` (centres unmarked) [Compound (38)], for which the inhibition at 0.1 µM worked out at 36.7%.

With `CC(C)CCCC(C)CCCC(C)(O)C(O)CN1CCCCC1` (centres unmarked) [Compound (39)], the inhibition at 0.1 µM was found to be 29.1%.

In the case of `CC(C)CCCC(C)CCCC(C)(O)C(O)CNC1CCN(Cc2ccccc2)CC1` (centres unmarked) [Compound (40), 1-[(1-benzylpiperidin-4-yl)amino]-3,7-11-trimethyl-2,3-dodecanediol], the inhibition at 0.1 µM was 34.8%.

`CC(C)CCCC(C)CCCC(C)(O)C(O)CNCc1cccnc1` (centres unmarked) [Compound (41)]: the inhibition at 0.1 µM turned out to be 46%.
